Source: ChEMBL document CHEMBL1201862, “PubChem BioAssay data set” (2004)
Calls of active or inactive are those of the source. Rule as the data show it, for most assays here: actives have a measured EC50 and inactives only a lower limit.

Tests used:
[1] = molecular target: T1, High affinity choline transporter 1 (Homo sapiens, UniProt Q9GZV3); test: human choline transporter blockers, potency – cell-based, 5-point CRC, membrane potential dye, dose response (AID 504840); format: functional
T1 sequence (Q9GZV3 whole entry): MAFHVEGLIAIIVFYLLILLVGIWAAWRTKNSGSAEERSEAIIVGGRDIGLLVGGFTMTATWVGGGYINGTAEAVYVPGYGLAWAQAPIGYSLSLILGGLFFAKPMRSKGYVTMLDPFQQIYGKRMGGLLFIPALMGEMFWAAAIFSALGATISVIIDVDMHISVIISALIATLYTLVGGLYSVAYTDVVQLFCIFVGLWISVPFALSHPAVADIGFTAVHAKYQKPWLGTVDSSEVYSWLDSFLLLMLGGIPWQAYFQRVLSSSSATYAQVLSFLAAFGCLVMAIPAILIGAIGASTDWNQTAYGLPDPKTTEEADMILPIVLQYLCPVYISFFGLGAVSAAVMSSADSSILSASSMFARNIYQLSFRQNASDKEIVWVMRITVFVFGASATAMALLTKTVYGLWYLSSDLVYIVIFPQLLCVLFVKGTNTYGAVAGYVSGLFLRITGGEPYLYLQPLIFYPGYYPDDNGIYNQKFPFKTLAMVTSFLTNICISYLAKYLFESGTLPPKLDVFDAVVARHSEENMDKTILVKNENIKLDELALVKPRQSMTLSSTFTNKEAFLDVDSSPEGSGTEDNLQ

[2] = system: H4; test: Luminescence Cell-Based Dose Response HTS to Identify Activators of 5'UTR Stem-Loop Driven Prion Protein mRNA Translation in H4 Neuroglioblastoma Cells. [Related pubchem assays: 1829 (Project Summary), 1814 (Primary HTS)]; format: functional; settings: Homo sapiens
[3] = Luminescence Cell-Based Dose Confirmation HTS to Identify Activators of 5'UTR Stem-Loop Driven Alpha-Synuclein mRNA Translation in H4 Neuroglioblastoma Cells. [Related pubchem assays: 1829 (Project Summary), 1814 (Primary HTS)]; format: functional
[4] = Luminescence Cell-Based Dose Response HTS to Identify Activators of Luciferase Translation or Activity in H4 […] Cells. [Related pubchem assays: 1829 (Project Summary), 1814 (Primary HTS)]; format: functional
[5] = molecular target: T2, Heat shock factor protein 1 (Mus musculus, UniProt P38532); test: enhancement of HSF1-driven luciferase signal – cell-based, NIH3T3, luminescence, dose retest, confirmation (AID 435004); format: functional;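 also: stress induced by proteasome inhibitor MG132 added 30 min after compound; luciferase reporter driven by HSF1 response element in NIH3T3 cells; actives raise luminescence as potentiators of the MG132 stress response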
T2 sequence (P38532 whole entry): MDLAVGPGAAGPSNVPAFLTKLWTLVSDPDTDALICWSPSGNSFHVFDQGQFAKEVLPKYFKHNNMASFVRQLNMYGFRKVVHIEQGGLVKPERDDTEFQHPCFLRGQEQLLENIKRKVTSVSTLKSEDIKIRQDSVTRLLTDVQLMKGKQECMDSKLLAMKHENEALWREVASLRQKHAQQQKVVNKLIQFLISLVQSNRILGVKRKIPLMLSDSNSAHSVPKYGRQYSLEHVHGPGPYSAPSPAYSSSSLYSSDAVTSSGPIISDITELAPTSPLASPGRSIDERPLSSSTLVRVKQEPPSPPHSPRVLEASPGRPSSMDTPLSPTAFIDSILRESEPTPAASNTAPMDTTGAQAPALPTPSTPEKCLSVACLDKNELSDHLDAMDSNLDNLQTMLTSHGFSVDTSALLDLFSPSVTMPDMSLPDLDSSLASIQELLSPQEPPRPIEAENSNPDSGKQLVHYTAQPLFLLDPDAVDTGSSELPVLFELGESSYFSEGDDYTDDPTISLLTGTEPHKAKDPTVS

[6] = molecular target: T3, Protein RecA (Mycobacterium tuberculosis, UniProt P9WHJ3); test: Fluorescence Cell-Free Homogeneous Dose Retest to Identify Inhibitors of RecA-Intein Splicing Activity. [Related pubchem assays (depositor defined):AID2097, AID2223, AID489010, AID492950]; format: functional
T3 sequence (P9WHJ3 whole entry): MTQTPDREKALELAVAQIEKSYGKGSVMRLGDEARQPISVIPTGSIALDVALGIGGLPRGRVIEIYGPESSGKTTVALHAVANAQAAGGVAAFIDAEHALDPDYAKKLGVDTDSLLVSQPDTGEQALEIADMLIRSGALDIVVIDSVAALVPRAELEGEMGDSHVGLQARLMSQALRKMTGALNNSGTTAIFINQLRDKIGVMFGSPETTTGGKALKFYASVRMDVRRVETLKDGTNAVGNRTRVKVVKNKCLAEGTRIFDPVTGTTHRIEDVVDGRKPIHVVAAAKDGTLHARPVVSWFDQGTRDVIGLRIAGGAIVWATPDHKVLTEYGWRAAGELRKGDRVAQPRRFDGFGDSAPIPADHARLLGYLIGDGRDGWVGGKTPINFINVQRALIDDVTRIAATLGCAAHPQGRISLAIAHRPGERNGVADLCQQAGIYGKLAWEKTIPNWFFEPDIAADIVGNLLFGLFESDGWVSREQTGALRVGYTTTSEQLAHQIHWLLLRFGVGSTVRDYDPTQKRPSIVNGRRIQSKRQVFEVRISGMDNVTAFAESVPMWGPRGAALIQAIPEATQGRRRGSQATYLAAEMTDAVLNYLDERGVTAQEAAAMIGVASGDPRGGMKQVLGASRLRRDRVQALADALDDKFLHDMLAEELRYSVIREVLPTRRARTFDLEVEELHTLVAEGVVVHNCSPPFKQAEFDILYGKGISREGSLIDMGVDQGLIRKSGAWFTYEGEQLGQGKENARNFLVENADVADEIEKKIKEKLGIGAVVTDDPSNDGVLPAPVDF

[7] = molecular target: T4, Replicative DNA helicase DnaB (Mycobacterium tuberculosis, UniProt P9WMR3); test: DnaB intein splicing inhibitors, dose response, biochemical, cell-free fluorescence (AID 449749); format: functional
T4 sequence (P9WMR3 whole entry): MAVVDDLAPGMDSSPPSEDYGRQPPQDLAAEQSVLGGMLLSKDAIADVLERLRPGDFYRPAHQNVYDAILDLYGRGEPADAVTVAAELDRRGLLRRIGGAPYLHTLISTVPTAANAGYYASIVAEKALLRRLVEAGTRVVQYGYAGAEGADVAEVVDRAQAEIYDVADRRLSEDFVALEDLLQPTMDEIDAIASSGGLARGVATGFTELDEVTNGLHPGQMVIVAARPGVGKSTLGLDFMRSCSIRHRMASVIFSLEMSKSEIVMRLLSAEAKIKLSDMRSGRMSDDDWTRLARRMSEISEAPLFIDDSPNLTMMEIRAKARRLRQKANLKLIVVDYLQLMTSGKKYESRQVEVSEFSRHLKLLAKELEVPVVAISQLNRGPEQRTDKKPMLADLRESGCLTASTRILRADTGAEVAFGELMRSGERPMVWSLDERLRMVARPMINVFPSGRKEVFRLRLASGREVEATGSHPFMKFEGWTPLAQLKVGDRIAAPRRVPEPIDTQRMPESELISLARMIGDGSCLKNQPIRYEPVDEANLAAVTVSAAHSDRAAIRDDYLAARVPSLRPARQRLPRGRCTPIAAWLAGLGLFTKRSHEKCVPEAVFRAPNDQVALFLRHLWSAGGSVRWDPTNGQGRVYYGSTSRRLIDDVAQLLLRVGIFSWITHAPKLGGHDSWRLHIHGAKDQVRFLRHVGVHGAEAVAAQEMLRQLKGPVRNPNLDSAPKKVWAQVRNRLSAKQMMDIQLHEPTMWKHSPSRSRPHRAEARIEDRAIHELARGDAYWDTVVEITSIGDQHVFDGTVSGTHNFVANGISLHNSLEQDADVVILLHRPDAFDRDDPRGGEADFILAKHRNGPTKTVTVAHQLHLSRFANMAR

[8] = system: Streptococcus; test: GAS UMAA2166 growth inhibition – luminescence, BacTiterGlo, counter-screen for streptokinase expression inhibitor project, dose response (AID 1915); format: functional, organism-based;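 also: potency for reduction of bacterial viability or growth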
[9] = molecular target: T5, Streptokinase A (Streptococcus pyogenes serotype M1, UniProt P10520); test: viability-normalized secreted streptokinase activity reduction – plasminogen activation absorbance, OD405, dose response (AID 1914); format: functional, Streptococcus pyogenes M1 GAS;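 also: secreted streptokinase activity via plasminogen activation per viability signal from cell pellet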
T5 sequence (P10520 whole entry): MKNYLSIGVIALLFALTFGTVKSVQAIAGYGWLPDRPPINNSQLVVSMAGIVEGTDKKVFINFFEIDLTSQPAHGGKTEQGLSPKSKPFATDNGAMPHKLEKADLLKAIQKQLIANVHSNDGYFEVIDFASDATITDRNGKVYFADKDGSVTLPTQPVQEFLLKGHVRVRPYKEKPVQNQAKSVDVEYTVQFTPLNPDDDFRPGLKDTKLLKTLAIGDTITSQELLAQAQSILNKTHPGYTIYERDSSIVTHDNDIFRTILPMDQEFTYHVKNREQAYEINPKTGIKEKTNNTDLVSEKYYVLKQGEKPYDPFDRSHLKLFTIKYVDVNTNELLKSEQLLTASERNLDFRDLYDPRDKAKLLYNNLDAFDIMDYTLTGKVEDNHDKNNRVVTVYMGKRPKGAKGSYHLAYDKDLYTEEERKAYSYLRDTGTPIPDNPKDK

[10] = system: Streptococcus sp. 'group A'; test: Streptococcus pyogenes SK(-)GAS viability under kanamycin – luminescence, BacTiterGlo, confirmation, counter-screen for streptokinase expression inhibitor project, dose response (AID 1900); format: functional, organism-based

**Q.** Which IC50 [1] does the source give for `CC(C)(C)C(=O)Nc1scc(-c2ccc(-c3ccccc3)cc2)c1C(=O)O` here?
**A.** 14.5 µM (active)

**Q.** Which EC50 [2] does the source give for `COc1ccc2oc(=O)c(-c3nnc(NCc4ccco4)s3)cc2c1` here?
**A.** 1.91 µM (active)

**Q.** And the EC50 [3]?
**A.** 23.1 µM (active)

**Q.** What about the EC50 [4] of the same compound?
**A.** 78.7 µM (active)

**Q.** For `Cc1cccc(C(=O)Nc2cccc(OCC(=O)O)c2)c1`, which IC50 [1] is on record?
**A.** 7.59 µM (active)

**Q.** Which EC50 [2] does the source give for `CCOc1ccc(NC(c2ccccn2)c2oc(CO)cc(=O)c2O)cc1` (configuration not stated) here?
**A.** 22.2 µM (active)

**Q.** And the EC50 [4]?
**A.** 0.175 µM (active)

**Q.** With `C[C@@H]1OC(Nc2ccc(N=Nc3ccccc3)cc2)[C@H](O)[C@H](O)[C@H]1O` (some centres not stated) as the compound, how does the EC50 [2] read?
**A.** 11.1 µM (active)

**Q.** And the EC50 [3]?
**A.** 16.9 µM (active)

**Q.** What about the EC50 [4] of the same compound?
**A.** 54.8 µM (active)

**Q.** Which EC50 [5] does the source give for `CCC(C)(C)n1nnnc1C(c1cc2cc(C)cc(C)c2nc1O)N1CCN(Cc2ccc3c(c2)OCO3)CC1` (configuration not stated) here?
**A.** > 260 µM (inactive)

**Q.** For `COc1ccccc1C(=O)Nc1nnc(C)s1`, which EC50 [2] is on record?
**A.** 26.3 µM (active)

**Q.** What about the EC50 [3] of the same compound?
**A.** 0.108 µM (active)

**Q.** And the EC50 [4]?
**A.** 4.92 µM (active)

**Q.** Which EC50 [6] does the source give for `CC1CCc2c(c3ccccc3n2C(=O)CCl)C1` (configuration not stated) here?
**A.** 0.751 µM (active)

**Q.** And the AC50 [7]?
**A.** > 380 µM (inactive)

**Q.** For `O=S(=O)(Nc1ccc(-c2nnc3n2CCCCC3)cc1)c1ccc2nc(O)oc2c1`, which EC50 [5] is on record?
**A.** > 260 µM (inactive)

**Q.** Which IC50 [1] does the source give for `Cc1cc(C)c(Cn2c3ccccc3c3cnn(CC(=O)NCCN4CCOCC4)c(=O)c32)c(C)c1` here?
**A.** 15.8 µM (active)

**Q.** Which EC50 [5] does the source give for `COC(=O)c1nnn(CC(=O)NC(=O)Nc2ccc(F)cc2)c1C(=O)OC` here?
**A.** > 260 µM (inactive)

**Q.** For `CSc1ccc(/C=N\Nc2nncn2N)cc1`, which EC50 [5] is on record?
**A.** 141 µM (active)

**Q.** For `Cc1cccc2cc3c(nc12)S/C(=N/CC1CCCO1)N(Cc1ccco1)C3` (configuration not stated), which EC50 [5] is on record?
**A.** 44.6 µM (active)

**Q.** For `Cc1n[nH]c(O)c1/C=N/Cc1cccs1`, which EC50 [5] is on record?
**A.** > 260 µM (inactive)

**Q.** For `CCCCCC(=O)Cc1cc(O)cc2c1C(=O)Oc1cc(O)c(C(=O)O)c(CCCCC)c1O2` [PHYSODIC ACID], which EC50 [8] is on record?
**A.** > 150 µM (not active)

**Q.** What about the EC50 [6] of the same compound?
**A.** 3.23 µM (active)

**Q.** What about the EC50 [9] of the same compound?
**A.** 15.9 µM (active)

**Q.** And the EC50 [10]?
**A.** 2.36 µM (active)

**Q.** What about the AC50 [7] of the same compound?
**A.** 2.05 µM (active)
